Laboratory results published in US20240117302A1, “COMPOSITIONS AND METHODS FOR SMALL MOLECULE BASED EXPANSION OF PLURIPOTENT STEM CELLS” (Trailhead Biosystems Inc., priority 2022, published 2024).

Columns and labels:
Format in all cases: cell-based
[1] = test system: pluripotent culture; assay: HD-DoE experiment for E8 critical process parameter (CPP) media determination; settings: 1:1 F12/IMDM hybrid media, FIG. 3
From the text: To monitor the differentiation state of a pluripotent culture and track the primed state, naïve state and any early lineage commitment biases that may arise during the culture process, a network consisting of 54 genes was chosen (FIG. 1). Other genes monitored throughout this series of experiments include TERT and KI67. Maximal TERT expression is needed to sustain the pluripotent state in both naïve and primed cells while KI67, a proliferation marker, is expected to increase in the naïve state. Housekeeping genes measured within this QS chip design are used to normalize the individual experimental runs. This network of genes was then monitored using an HD-DoE methodology (Bukys et al. (2020) Iscience 23:101346) as further described in Example 2 to enable in silico modelling of the pluripotent state.
An initial HD-DoE modelling experiment was designed to determine if any of the components within the Essential 8 (E8) media were critical for pluripotent maintenance. The results of this experiment are depicted in FIG. 2. E8 media components include HEPES, bicarbonate, selenium, ascorbic acid, transferrin, insulin, FGF2 and TGF-β. HEPES, bicarbonate and selenium were not considered in this HD-DoE design, because they are additives that are not specific for the maintenance of the pluripotent state but are involved in enabling the overall growth of any cells in culture. In addition, these components are present in most generic media formulations, whereas the initial HD-DoE experiment herein utilized a 1:1 F12/IMDM hybrid media already containing HEPES, bicarbonate and selenium. In addition to the E8 components, human leukemia inhibitory factor (hLIF), AICAR (AMPK pathway agonist), CHIR 99021 (Wnt agonist/[…] antagonist), Go6983 (PKC pathway antagonist), PD0325901 (MEK pathway antagonist), and Y27632 (ROCK inhibitor) were evaluated within this design (FIG. 2). These components were selected based on previous experiments indicating the potential contribution of these components to maintenance of the pluripotent state.
Whereas the overall pluripotent state was driven by Go6983, the naïve state was favored by Y27632.

[2] = test system: pluripotent culture; assay: HD-DoE experiment for pluripotent maintenance (optimization of naïve, primed and pluripotent genes); settings: FIG. 6A
From the text: A data-driven, High-Dimensional Design of Experiments (HD-DoE)-based perturbation of a pluripotent culture was used to assay several cellular signaling pathways known to function within the pluripotent state. The HD-DOE method was applied with the intent to find conditions for directly inducing the naïve state from the pluripotent stem cell state. This example utilizes a method previously described by Bukys et al. (2020) Iscience 23:101346, which employs computerized design geometries to simultaneously test multiple process inputs and provide for mathematical modeling of a deep effector/response space. The method allows for finding combinatorial signaling inputs that control a complex differentiation process and allows testing of multiple plausible critical process parameters impacting output responses, such as gene expression. […]
To develop a cell culture recipe for growing and maintaining PSCs in cell culture and for differentiation of stem cells to naïve state progenitors, the impact of agonists and antagonists of multiple signaling pathways (herein called effectors) on the expression of pre-selected genes was tested and modeled. The impact of each effector on gene expression level is defined by a parameter called factor contribution that is calculated for each effector during the modeling. […]

[3] = test system: pluripotent cells; assay: Adherent culture validation of TB5i media and comparison with TB7i; settings: direct comparison between TB5i and TB7i, FIG. 7A-7B
Description: In an exemplary embodiment, a PSC culture, such as the CR01 iPSC line, is grown and maintained on vitronectin coated 6-well TC plates using a culture media of the present application, such as TB5i media. PSC cultures are generally passaged every 3-4 days and treated with agents for disrupting cell-to-cell adhesion, such as EDTA, or digestion enzymes, such as collagenase, accutase, trypsin, or […]. This can be accomplished by removing the media and washing each well of the TC plate with 2 ml of PBS. A 3-minute incubation in the presence of 5 mM EDTA can then be performed at 37 degrees C. Wells are then aspirated, and the cells are washed off from the plates and seeded in fresh media. Each well passaged is generally seeded onto 6 wells of a newly vitronectin-coated TC plate resulting in a 1 to 6 expansion of the iPSC line.

[4] = test system: pluripotent colony; assay: Protein additives assayed in the TB5i formulation, with immuno-histochemical validation; settings: additive in the TB5i formulation, FIG. 8A
From the text: The protein additives FGF2, TGF-β1 and insulin were next assayed as additives in the TB5i formulation (FIG. 8A).

COc1ccc2c(c1)c(C1=C(c3c[nH]c4ccccc34)C(=O)NC1=O)cn2CCCN(C)C [Go6983]
contribution to maintaining the pluripotent state [1]: potentially aid in pluripotent maintenance

C[C@@H](N)[C@H]1CC[C@H](C(=O)Nc2ccncc2)CC1 [Y27632]
criticality to the process (sequential optimization of all naïve, primed and pluripotent genes) [2]: neither the cAMP activator forskolin, nor the ROCK pathway inhibitor were critical
benefit to the overall growth of pluripotent cells [3]: neither forskolin, nor Y27632 were beneficial
contribution to maintaining the pluripotent state [1]: potentially aid in pluripotent maintenance

O=C1O[C@H]([C@@H](O)CO)C(O)=C1O [ascorbic acid]
contribution to maintaining the pluripotent state [1]: beneficial in maintaining the pluripotent state

FGF2
growth rate of the culture [4]: increased the growth rate

TGF-β1
morphology of the pluripotent colony edges [4]: sustained normal morphology

insulin
effect on the culture [4]: little, if any beneficial effect

transferrin
contribution to maintaining the pluripotent state [1]: beneficial in maintaining the pluripotent state
